Experimental findings from PubChem BioAssay (NCI) are described below.

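Five compound concentrations were applied to cells in 96-well plates for 48 hours; endpoints were derived by simple linear interpolation of the resulting dose-response curve. TGI marks complete inhibition of growth.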

Holding throughout (test): NCI anticancer screen, dose series, 48 h
Assay [1] concerns IGROV1 ovarian.
For assay [2], the system named is HCT-15 colon.
In assay [3] the test system is MCF7 breast.
The test system of assay [4] is SF-268 CNS.
Assay [5] concerns MDA-N.
For assay [6], the system named is M14 melanoma.
The test system of assay [7] is DU-145 prostate.
Assay [8] concerns ACHN renal.
Assay [9] concerns U251 CNS.
Assay [10] concerns LOX IMVI melanoma.
The test system of assay [11] is OVCAR-3 ovarian.
Assay [12] relates to KM12 colon.
In assay [13] the test system is SNB-75 CNS.

As for `C=CC[C@@]12CCC(=O)C=C1CCCC2=O`, the TGI in assay [1], in [2], in assay [3], in [4], in assay [5] and in assay [6] was over 100 µM throughout. The TGI in assay [7], in assay [8], in assay [9], in assay [10] and in [11] was over 100 µM in each case.
In the case of `COc1ccc2c(c1)C1c3ccccc3CCN1CCC2` (configuration not stated), the TGI in assay [1], in assay [12], in [2], in [3], in assay [4] and in assay [6] was over 100 µM in each case. Besides, the TGI was over 100 µM in [7]; 64.2 µM in [13]; over 100 µM in assay [8]; over 100 µM in assay [9]; over 100 µM in assay [10]; over 100 µM in [11].
As to `C/C(=C(/C)c1cc[n+](C)cc1)c1cc[n+](C)cc1`, the TGI in assay [1], in assay [12], in [2], in assay [4], in [6] and in assay [13] was over 75 µM throughout. Besides, the TGI in assay [8], in assay [9], in [10] and in [11] was over 75 µM each time.
Regarding `COC(=O)/C=C/c1ccc2c(c1)[C@H](C(=O)OC)[C@@H](c1ccc(O)cc1)O2`, the TGI in [1] is over 100 µM; in [12], 88.1 µM; in assay [2], 47.3 µM; in assay [3], 48.6 µM; in assay [4], 83.8 µM; in assay [5] it was 95.7 µM. In addition, the TGI was 42.7 µM in assay [6]; over 100 µM in assay [7]; over 100 µM in assay [8]; over 100 µM in assay [9]; 89.4 µM in [10]; 28.2 µM in [11].
With `Cn1nc(S(N)(=O)=O)s/c1=N/S(=O)(=O)c1ccc(N)cc1`, the TGI in assay [12], in [2], in assay [4], in assay [6], in [7] and in assay [13] was over 100 µM in each case. Also, the TGI in assay [8], in assay [9] and in [11] was over 100 µM in each case.
Take `C=C(C)CCN(C(=O)OC(C)(C)C)c1cc(C(C)C)co1`: the TGI in [1] is over 100 µM; in assay [12] it was over 100 µM; in [2], over 100 µM; in assay [3], over 100 µM; in assay [4], 55.7 µM; in [5], over 100 µM. Further, the TGI in [6] was over 100 µM; in assay [7], over 100 µM; in assay [8], over 100 µM; in assay [9], over 100 µM; in assay [10], 96.7 µM; in assay [11] it was over 100 µM.
On to `Cc1ccc(/C=C2\CCCCCC2=O)cc1`, for which the TGI in assay [1], in assay [12], in [2], in assay [4], in assay [5] and in assay [6] was over 100 µM throughout. For the same compound, the TGI in assay [7], in assay [13], in [8], in [9], in assay [10] and in assay [11] was over 100 µM each time.
Regarding `O=C(Nc1ccccc1[N+](=O)[O-])C(=O)C(C(=O)c1ccccc1-c1ccccc1)C1OC(=O)c2ccccc21` (configuration not stated), the TGI was determined as 51.3 µM in assay [1]; 30.6 µM in [12]; 30 µM in assay [2]; 41 µM in assay [4]; 28.9 µM in [6]; 53.4 µM in assay [13]. Further, the TGI in [8] is over 100 µM; in assay [9] it was 24.2 µM; in assay [10], 36 µM; in [11], 28 µM.
With `COc1ccc(-c2cc(=O)c3ccc(F)cc3[nH]2)cc1`, the TGI in assay [1], in assay [12], in assay [4], in [6], in assay [13] and in [8] was over 100 µM throughout. The TGI in assay [10] and in assay [11] was over 100 µM in each case.
In the case of `CC(C)=CC[C@H]1C[C@@]2(CC=C(C)C)C(=O)/C(=C(/O)c3ccccc3)C(=O)[C@](CC=C(C)C)(C2=O)C1(C)C`, the TGI in assay [1] was found to be 20.3 µM; in [12], 19.9 µM; in assay [2], 26.5 µM; in [3], 21.5 µM; in assay [4], 39.4 µM; in assay [5], 20.1 µM. The TGI in [6] was 25.2 µM; in assay [13], 33.4 µM; in assay [8], 21.8 µM; in [9], 20.8 µM; in assay [10] it was 17 µM.
With `CC(=O)c1c2c(cc3c1CC1(C3)Cc3cc4c(c(C(C)=O)c3C1)CCCC4)CCCC2`, the TGI in [1], in [12], in assay [2], in assay [3], in [5] and in assay [6] was over 100 µM each time. Moreover, the TGI in [8], in assay [9], in assay [10] and in [11] was over 100 µM in each case.
Regarding `O=c1[nH]cc(COCC(O)CO)c(=O)[nH]1` (configuration not stated), the TGI in assay [1], in assay [12], in [2], in assay [4], in assay [6] and in assay [13] was over 100 µM throughout. In addition, the TGI in [8], in assay [9], in assay [10] and in assay [11] was over 100 µM throughout.
